Reference: ChEMBL document CHEMBL1201862, “PubChem BioAssay data set” (2004)
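Method: 48-hour compound exposure of cells in 96-well plates, five concentrations, linear interpolation of endpoints. At the GI50, growth is halved.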 Active and inactive are the calls of the source. Cut-off read from the data, not from the text of the source: active = GI50 up to about 1.1 µM and inactive = higher.

What was measured:
Assay in all cases: NCI tumour cell line growth inhibition, 48 h
NCI-H226 = system: NCI-H226
EKVX = system: EKVX
DU-145 = system: DU-145
SN12C = system: SN12C
SF-268 = system: SF-268
HOP-92 = system: HOP-92
Hs-578T = system: Hs-578T
SK-MEL-5 = system: SK-MEL-5
NCI-H460 = system: NCI-H460
OVCAR-8 = system: OVCAR-8
NCI-H522 = system: NCI-H522
SW-620 = system: SW-620
CAKI-1 = system: CAKI-1
SK-OV-3 = system: SK-OV-3
UACC-62 = system: UACC-62
T47D = system: T47D
U-251 = system: U-251
HT-29 = system: HT-29
K562 = system: K562
HOP-62 = system: HOP-62
NCI-H23 = system: NCI-H23
MOLT-4 = system: MOLT-4
M14 = system: M14
OVCAR-4 = system: OVCAR-4
PC-3 = system: PC-3
OVCAR-5 = system: OVCAR-5
MDA-MB-231 = system: MDA-MB-231
UO-31 = system: UO-31
786-0 = system: 786-0
TK-10 = system: TK-10
BT-549 = system: BT-549
SR = system: SR
A498 = system: A498
HL-60 = system: HL-60
A549 = system: A549
HCC 2998 = system: HCC 2998
UACC-257 = system: UACC-257
OVCAR-3 = system: OVCAR-3
MDA-N = system: MDA-N
Malme-3M = system: Malme-3M
NCI/ADR-RES = system: NCI/ADR-RES
SK-MEL-28 = system: SK-MEL-28
SF-295 = system: SF-295
ACHN = system: ACHN
MCF7 = system: MCF7
COLO 205 = system: COLO 205
HCT-15 = system: HCT-15
MDA-MB-435 = system: MDA-MB-435
SK-MEL-2 = system: SK-MEL-2
KM12 = system: KM12
CCRF-CEM = system: CCRF-CEM
SF-539 = system: SF-539
SNB-19 = system: SNB-19
HCT-116 = system: HCT-116
SNB-75 = system: SNB-75
RXF 393 = system: RXF 393
IGROV-1 = system: IGROV-1
RPMI-8226 = system: RPMI-8226
LOX IMVI = system: LOX IMVI

Compound: O=C(c1cccs1)N(C(=O)N1CCN(c2ccccc2)CC1)S(=O)(=O)c1ccccc1
- GI50 (NCI-H226): 19.8 µM (inactive)
- GI50 (EKVX): 16.7 µM (inactive)
- GI50 (DU-145): 16.5 µM (inactive)
- GI50 (SN12C): 17.5 µM (inactive)
- GI50 (SF-268): 27.3 µM (inactive)
- GI50 (HOP-92): 22.9 µM (inactive)
- GI50 (Hs-578T): 23.8 µM (inactive)
- GI50 (SK-MEL-5): 17 µM (inactive)
- GI50 (NCI-H460): 28.2 µM (inactive)
- GI50 (OVCAR-8): 18.6 µM (inactive)
- GI50 (NCI-H522): 15.6 µM (inactive)
- GI50 (SW-620): 31.5 µM (inactive)
- GI50 (CAKI-1): 21.2 µM (inactive)
- GI50 (SK-OV-3): 46.6 µM (inactive)
- GI50 (UACC-62): 17.6 µM (inactive)
- GI50 (T47D): 12.7 µM (inactive)
- GI50 (U-251): 17.5 µM (inactive)
- GI50 (HT-29): 30.5 µM (inactive)
- GI50 (K562): 25.1 µM (inactive)
- GI50 (HOP-62): 29.6 µM (inactive)
- GI50 (NCI-H23): 24 µM (inactive)
- GI50 (MOLT-4): 20.2 µM (inactive)
- GI50 (M14): 17.7 µM (inactive)
- GI50 (OVCAR-4): 34.7 µM (inactive)
- GI50 (PC-3): 29 µM (inactive)
- GI50 (OVCAR-5): 22.7 µM (inactive)
- GI50 (MDA-MB-231): 23.1 µM (inactive)
- GI50 (UO-31): 18.5 µM (inactive)
- GI50 (786-0): 23.2 µM (inactive)
- GI50 (TK-10): 31.8 µM (inactive)
- GI50 (BT-549): 28.2 µM (inactive)
- GI50 (SR): 21.8 µM (inactive)
- GI50 (A498): 62.2 µM (inactive)
- GI50 (HL-60): 19.4 µM (inactive)
- GI50 (A549): 32.8 µM (inactive)
- GI50 (HCC 2998): 40.1 µM (inactive)
- GI50 (UACC-257): 23.8 µM (inactive)
- GI50 (OVCAR-3): 32.2 µM (inactive)
- GI50 (MDA-N): 19.3 µM (inactive)
- GI50 (Malme-3M): 19.8 µM (inactive)
- GI50 (NCI/ADR-RES): 24 µM (inactive)
- GI50 (SK-MEL-28): 22.4 µM (inactive)
- GI50 (SF-295): 28.1 µM (inactive)
- GI50 (ACHN): 19.3 µM (inactive)
- GI50 (MCF7): 27.4 µM (inactive)
- GI50 (COLO 205): 16.4 µM (inactive)
- GI50 (HCT-15): 28.5 µM
- GI50 (MDA-MB-435): 25.2 µM (inactive)
- GI50 (SK-MEL-2): 18.7 µM (inactive)
- GI50 (KM12): 31.4 µM (inactive)
- GI50 (CCRF-CEM): 20.8 µM (inactive)
- GI50 (SF-539): 17.9 µM (inactive)
- GI50 (SNB-19): 27 µM (inactive)
- GI50 (HCT-116): 20.2 µM (inactive)
- GI50 (SNB-75): 14.2 µM (inactive)

Compound: Nc1ncc(Sc2ccccc2C(=O)O)s1
- GI50 (NCI-H226): > 100 µM (inactive)
- GI50 (EKVX): > 100 µM (inactive)
- GI50 (DU-145): > 100 µM (inactive)
- GI50 (SN12C): > 100 µM (inactive)
- GI50 (SF-268): > 100 µM (inactive)
- GI50 (RXF 393): > 100 µM (inactive)
- GI50 (HOP-92): > 100 µM (inactive)
- GI50 (Hs-578T): > 100 µM (inactive)
- GI50 (SK-MEL-5): > 100 µM (inactive)
- GI50 (NCI-H460): > 100 µM (inactive)
- GI50 (OVCAR-8): > 100 µM (inactive)
- GI50 (SW-620): > 100 µM (inactive)
- GI50 (CAKI-1): > 100 µM (inactive)
- GI50 (UACC-62): > 100 µM (inactive)
- GI50 (T47D): > 100 µM (inactive)
- GI50 (U-251): > 100 µM (inactive)
- GI50 (HT-29): > 100 µM (inactive)
- GI50 (K562): > 100 µM (inactive)
- GI50 (HOP-62): > 100 µM (inactive)
- GI50 (NCI-H23): > 100 µM (inactive)
- GI50 (MOLT-4): > 100 µM (inactive)
- GI50 (M14): > 100 µM (inactive)
- GI50 (PC-3): > 100 µM (inactive)
- GI50 (OVCAR-5): > 100 µM (inactive)
- GI50 (MDA-MB-231): > 100 µM (inactive)
- GI50 (IGROV-1): > 100 µM (inactive)
- GI50 (UO-31): > 100 µM (inactive)
- GI50 (786-0): > 100 µM (inactive)
- GI50 (TK-10): > 100 µM (inactive)
- GI50 (BT-549): > 100 µM (inactive)
- GI50 (SR): > 100 µM (inactive)
- GI50 (A498): > 100 µM (inactive)
- GI50 (HL-60): > 100 µM (inactive)
- GI50 (A549): > 100 µM (inactive)
- GI50 (UACC-257): > 100 µM (inactive)
- GI50 (OVCAR-3): > 100 µM (inactive)
- GI50 (MDA-N): > 100 µM (inactive)
- GI50 (NCI/ADR-RES): > 100 µM (inactive)
- GI50 (SK-MEL-28): > 100 µM (inactive)
- GI50 (SF-295): > 100 µM (inactive)
- GI50 (ACHN): > 100 µM (inactive)
- GI50 (MCF7): > 100 µM (inactive)
- GI50 (COLO 205): > 100 µM (inactive)
- GI50 (HCT-15): > 100 µM
- GI50 (MDA-MB-435): > 100 µM (inactive)
- GI50 (RPMI-8226): > 100 µM (inactive)
- GI50 (SK-MEL-2): > 100 µM (inactive)
- GI50 (KM12): > 100 µM (inactive)
- GI50 (CCRF-CEM): > 100 µM (inactive)
- GI50 (SF-539): > 100 µM (inactive)
- GI50 (SNB-19): > 100 µM (inactive)
- GI50 (HCT-116): > 100 µM (inactive)
- GI50 (LOX IMVI): > 100 µM (inactive)
- GI50 (SNB-75): > 100 µM (inactive)

Compound: CCOC(=O)c1nc2cc(C(F)(F)F)ccc2nc1Nc1ccc(OC)cc1
- GI50 (NCI-H226): > 100 µM (inactive)
- GI50 (EKVX): > 100 µM (inactive)
- GI50 (DU-145): > 100 µM (inactive)
- GI50 (SN12C): > 100 µM (inactive)
- GI50 (SF-268): > 100 µM (inactive)
- GI50 (RXF 393): 56.1 µM (inactive)
- GI50 (HOP-92): 36.6 µM (inactive)
- GI50 (Hs-578T): 54.1 µM (inactive)
- GI50 (SK-MEL-5): > 100 µM (inactive)
- GI50 (OVCAR-8): > 100 µM (inactive)
- GI50 (NCI-H522): > 100 µM (inactive)
- GI50 (SW-620): > 100 µM (inactive)
- GI50 (CAKI-1): > 100 µM (inactive)
- GI50 (UACC-62): > 100 µM (inactive)
- GI50 (T47D): 95.1 µM (inactive)
- GI50 (HT-29): > 100 µM (inactive)
- GI50 (HOP-62): 42.5 µM (inactive)
- GI50 (NCI-H23): > 100 µM (inactive)
- GI50 (MOLT-4): > 100 µM (inactive)
- GI50 (M14): > 100 µM (inactive)
- GI50 (PC-3): > 100 µM (inactive)
- GI50 (OVCAR-5): > 100 µM (inactive)
- GI50 (MDA-MB-231): 61.7 µM (inactive)
- GI50 (IGROV-1): > 100 µM (inactive)
- GI50 (UO-31): > 100 µM (inactive)
- GI50 (786-0): 47.4 µM (inactive)
- GI50 (TK-10): > 100 µM (inactive)
- GI50 (BT-549): > 100 µM (inactive)
- GI50 (SR): > 100 µM (inactive)
- GI50 (A498): > 100 µM (inactive)
- GI50 (HL-60): > 100 µM (inactive)
- GI50 (A549): > 100 µM (inactive)
- GI50 (HCC 2998): > 100 µM (inactive)
- GI50 (UACC-257): > 100 µM (inactive)
- GI50 (OVCAR-3): > 100 µM (inactive)
- GI50 (MDA-N): > 100 µM (inactive)
- GI50 (NCI/ADR-RES): > 100 µM (inactive)
- GI50 (SK-MEL-28): > 100 µM (inactive)
- GI50 (SF-295): 81.3 µM (inactive)
- GI50 (ACHN): 86.9 µM (inactive)
- GI50 (MCF7): > 100 µM (inactive)
- GI50 (COLO 205): 47.4 µM (inactive)
- GI50 (HCT-15): > 100 µM
- GI50 (MDA-MB-435): > 100 µM (inactive)
- GI50 (RPMI-8226): > 100 µM (inactive)
- GI50 (SK-MEL-2): > 100 µM (inactive)
- GI50 (KM12): > 100 µM (inactive)
- GI50 (SF-539): > 100 µM (inactive)
- GI50 (SNB-19): 54.3 µM (inactive)
- GI50 (HCT-116): 46.1 µM (inactive)
- GI50 (LOX IMVI): 41.5 µM (inactive)
- GI50 (SNB-75): 55.6 µM (inactive)
